# From PubChem BioAssay (NCI)
# “And” between values parts separate entries of the source, which are not always exact repeats. Identical values can stand only once.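 Assay format: 96-well plates, 48-hour exposure. The concentration for 50% growth inhibition is given as GI50. TGI denotes the concentration required for complete inhibition of growth.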
# What was measured:
# Experiment in all cases: inhibition of tumour cell growth, NCI panel, 48 h
# MDA-MB-468 breast = system: MDA-MB-468 breast
# CAKI-1 renal = system: CAKI-1 renal
# NCI-H23 lung = system: NCI-H23 lung
# MALME-3M melanoma = system: MALME-3M melanoma
# PC-3 prostate = system: PC-3 prostate
# ACHN renal = system: ACHN renal
# NCI-H522 lung = system: NCI-H522 lung
# IGROV1 ovarian = system: IGROV1 ovarian
# HOP-62 NSCLC = system: HOP-62 NSCLC
# HCT-15 colon = system: HCT-15 colon
# UACC-257 melanoma = system: UACC-257 melanoma
# SF-539 CNS = system: SF-539 CNS
# A549 NSCLC = system: A549 NSCLC
# LOX IMVI melanoma = system: LOX IMVI melanoma
# MDA-MB-435 = system: MDA-MB-435
# NCI/ADR-RES ovarian = system: NCI/ADR-RES ovarian
# COLO 205 colon = system: COLO 205 colon
# OVCAR-8 ovarian = system: OVCAR-8 ovarian
# UO-31 renal = system: UO-31 renal
# DU-145 prostate = system: DU-145 prostate
# SNB-75 CNS = system: SNB-75 CNS
# A498 renal = system: A498 renal
# SF-295 CNS = system: SF-295 CNS
# M14 melanoma = system: M14 melanoma
# U251 CNS = system: U251 CNS
# EKVX NSCLC = system: EKVX NSCLC
# SK-OV-3 ovarian = system: SK-OV-3 ovarian
# BT-549 breast = system: BT-549 breast
# 786-0 renal = system: 786-0 renal
# RPMI-8226 leukemia = system: RPMI-8226 leukemia
# T-47D breast = system: T-47D breast
# MOLT-4 leukemia = system: MOLT-4 leukemia
# SK-MEL-28 melanoma = system: SK-MEL-28 melanoma
# HCT-116 colon = system: HCT-116 colon
# MCF7 breast = system: MCF7 breast
# HT29 colon = system: HT29 colon
# HL-60(TB) leukemia = system: HL-60(TB) leukemia
# OVCAR-3 ovarian = system: OVCAR-3 ovarian
# HCC-2998 colon = system: HCC-2998 colon
# K-562 leukemia = system: K-562 leukemia
# OVCAR-4 ovarian = system: OVCAR-4 ovarian
# SF-268 CNS = system: SF-268 CNS
# SK-MEL-5 melanoma = system: SK-MEL-5 melanoma
# CCRF-CEM leukemia = system: CCRF-CEM leukemia
# SK-MEL-2 melanoma = system: SK-MEL-2 melanoma
# HOP-92 NSCLC = system: HOP-92 NSCLC
# KM12 colon = system: KM12 colon
# SW-620 colon = system: SW-620 colon
# HS 578T breast = system: HS 578T breast
# TK-10 renal = system: TK-10 renal
# OVCAR-5 ovarian = system: OVCAR-5 ovarian
# RXF 393 renal = system: RXF 393 renal
# NCI-H226 lung = system: NCI-H226 lung
# NCI-H460 lung = system: NCI-H460 lung
compound,measurement,setting,value
Cc1ccc(-c2csc(NC(=O)N3CCN(c4cc5c(cc4F)c(=O)c(C(=O)O)cn5C4CC4)CC3)n2)cc1,GI50,MDA-MB-468 breast,1.29 µM
same,TGI,MDA-MB-468 breast,8.17 µM
Cc1ccc(-c2nc3nc(-c4ccccc4)nc(N4CCNCC4)c3o2)cc1,GI50,MDA-MB-468 breast,0.31 µM
same,TGI,MDA-MB-468 breast,1.23 µM
NC(=O)c1ccc(-c2nc(-c3ccc4c(c3)OCO4)c(-c3ccccn3)[nH]2)cc1,GI50,MDA-MB-468 breast,> 25 µM and 21.6 µM
same,TGI,MDA-MB-468 breast,> 25 µM and 57 µM
CC[C@H](CO)Nc1nc(NCc2ccccc2)c2ncn(C(C)C)c2n1,GI50,MDA-MB-468 breast,15.8 µM
same,TGI,MDA-MB-468 breast,33.9 µM
CC1=C(CCC(C)NCc2ccc(OCCCN3CCCCC3)cc2)C(C)(C)CCC1 (stereo not drawn),GI50,MDA-MB-468 breast,1.53 µM
same,TGI,MDA-MB-468 breast,3.12 µM
Nc1ccccc1C#C/C=C\C#Cc1cccc(O)c1,GI50,MDA-MB-468 breast,1.38 µM
same,TGI,MDA-MB-468 breast,20.4 µM
COc1ccc(C(=O)/C=C/c2cccc(Nc3ccnc4cc(Cl)ccc34)c2)cc1,GI50,MDA-MB-468 breast,0.576 µM
same,TGI,MDA-MB-468 breast,3.38 µM
CCC[CH2][Sn]1([CH2]CCC)[O]C2C(CO)OC(n3ccc(N)nc3=O)C2[O]1 (stereo not drawn),GI50,MDA-MB-468 breast,0.471 µM
same,TGI,MDA-MB-468 breast,2 µM
CN(C)c1nc(NCCNS(=O)(=O)c2ccc(C3=Nc4c(N)nc(N)nc4NC(c4ccc(C(F)(F)F)cc4)C3)cc2)nc(Nc2ccc(F)cc2)n1 (stereo not drawn),GI50,CAKI-1 renal,36.8 µM
same,TGI,CAKI-1 renal,> 86 µM
same,GI50,NCI-H23 lung,27.7 µM
same,TGI,NCI-H23 lung,> 86 µM
same,GI50,MALME-3M melanoma,11.3 µM
same,TGI,MALME-3M melanoma,24.2 µM
same,GI50,PC-3 prostate,4.37 µM
same,TGI,PC-3 prostate,> 86 µM
same,GI50,ACHN renal,> 86 µM
same,TGI,ACHN renal,> 86 µM
same,GI50,NCI-H522 lung,17.8 µM
same,TGI,NCI-H522 lung,44.8 µM
same,GI50,IGROV1 ovarian,11.2 µM
same,TGI,IGROV1 ovarian,> 86 µM
same,GI50,HOP-62 NSCLC,31.4 µM
same,TGI,HOP-62 NSCLC,> 86 µM
same,GI50,HCT-15 colon,55.1 µM
same,TGI,HCT-15 colon,> 86 µM
same,GI50,UACC-257 melanoma,23.3 µM
same,TGI,UACC-257 melanoma,> 86 µM
same,GI50,SF-539 CNS,6.22 µM
same,TGI,SF-539 CNS,24.7 µM
same,GI50,A549 NSCLC,55 µM
same,TGI,A549 NSCLC,> 86 µM
same,GI50,LOX IMVI melanoma,3.14 µM
same,TGI,LOX IMVI melanoma,12 µM
same,GI50,MDA-MB-435,9.13 µM
same,TGI,MDA-MB-435,> 86 µM
same,GI50,NCI/ADR-RES ovarian,> 86 µM
same,TGI,NCI/ADR-RES ovarian,> 86 µM
same,GI50,COLO 205 colon,9.73 µM
same,TGI,COLO 205 colon,21.8 µM
same,GI50,OVCAR-8 ovarian,26.1 µM
same,TGI,OVCAR-8 ovarian,> 86 µM
same,GI50,UO-31 renal,> 86 µM
same,TGI,UO-31 renal,> 86 µM
same,GI50,DU-145 prostate,38.5 µM
same,TGI,DU-145 prostate,> 86 µM
same,GI50,SNB-75 CNS,2.13 µM
same,TGI,SNB-75 CNS,> 86 µM
same,GI50,A498 renal,22.2 µM
same,TGI,A498 renal,77.4 µM
same,GI50,SF-295 CNS,12.9 µM
same,TGI,SF-295 CNS,> 86 µM
same,GI50,M14 melanoma,7.87 µM
same,TGI,M14 melanoma,> 86 µM
same,GI50,U251 CNS,5.52 µM
same,TGI,U251 CNS,> 86 µM
same,GI50,EKVX NSCLC,5.52 µM
same,TGI,EKVX NSCLC,> 86 µM
same,GI50,SK-OV-3 ovarian,> 86 µM
same,TGI,SK-OV-3 ovarian,> 86 µM
same,GI50,BT-549 breast,11.8 µM
same,TGI,BT-549 breast,32.6 µM
same,GI50,786-0 renal,10.1 µM
same,TGI,786-0 renal,39.8 µM
same,GI50,RPMI-8226 leukemia,4 µM
same,TGI,RPMI-8226 leukemia,> 86 µM
same,GI50,T-47D breast,12 µM
same,TGI,T-47D breast,> 86 µM
same,GI50,MOLT-4 leukemia,2.74 µM
same,TGI,MOLT-4 leukemia,> 86 µM
same,GI50,SK-MEL-28 melanoma,15 µM
same,TGI,SK-MEL-28 melanoma,> 86 µM
same,GI50,HCT-116 colon,5.1 µM
same,TGI,HCT-116 colon,> 86 µM
same,GI50,MCF7 breast,2.87 µM
same,TGI,MCF7 breast,21 µM
same,GI50,HT29 colon,4.88 µM
same,TGI,HT29 colon,18.3 µM
same,GI50,HL-60(TB) leukemia,4.07 µM
same,TGI,HL-60(TB) leukemia,> 86 µM
same,GI50,OVCAR-3 ovarian,11.9 µM
same,TGI,OVCAR-3 ovarian,> 86 µM
same,GI50,HCC-2998 colon,4.72 µM
same,TGI,HCC-2998 colon,25.9 µM
same,GI50,K-562 leukemia,3.51 µM
same,TGI,K-562 leukemia,> 86 µM
same,GI50,OVCAR-4 ovarian,25 µM
same,TGI,OVCAR-4 ovarian,> 86 µM
same,GI50,SF-268 CNS,11.2 µM
same,TGI,SF-268 CNS,> 86 µM
same,GI50,SK-MEL-5 melanoma,10.4 µM
same,TGI,SK-MEL-5 melanoma,21.3 µM
same,GI50,MDA-MB-468 breast,2.67 µM
same,TGI,MDA-MB-468 breast,11.7 µM
same,GI50,CCRF-CEM leukemia,3.24 µM
same,TGI,CCRF-CEM leukemia,> 86 µM
same,GI50,SK-MEL-2 melanoma,10.8 µM
same,TGI,SK-MEL-2 melanoma,24.7 µM
same,GI50,HOP-92 NSCLC,2.99 µM
same,TGI,HOP-92 NSCLC,16.9 µM
same,GI50,KM12 colon,6.14 µM
same,TGI,KM12 colon,> 86 µM
same,GI50,SW-620 colon,14.3 µM
same,TGI,SW-620 colon,> 86 µM
same,GI50,HS 578T breast,9.03 µM
same,TGI,HS 578T breast,> 86 µM
same,GI50,TK-10 renal,> 86 µM
same,TGI,TK-10 renal,> 86 µM
same,GI50,OVCAR-5 ovarian,19.9 µM
same,TGI,OVCAR-5 ovarian,> 86 µM
same,GI50,RXF 393 renal,2.57 µM
same,TGI,RXF 393 renal,18.8 µM
same,GI50,NCI-H226 lung,37.3 µM
same,TGI,NCI-H226 lung,> 86 µM
same,GI50,NCI-H460 lung,5.49 µM
same,TGI,NCI-H460 lung,> 86 µM
NC(=O)Nc1cc(-c2cccc(F)c2)sc1C(=O)N[C@H]1CCCNC1,GI50,MDA-MB-468 breast,0.591 µM and 0.398 µM
same,TGI,MDA-MB-468 breast,2.35 µM and 1.64 µM
O=C1NOC(c2ccc(O)cc2)(c2ccc(O)cc2)c2ccccc21,GI50,MDA-MB-468 breast,> 100 µM
same,TGI,MDA-MB-468 breast,> 100 µM
[Cl][Ru].c1ccc(-c2cccc(-c3ccccn3)n2)nc1.c1ccc(-c2ccnc3c2ccc2c(-c4ccccc4)ccnc23)cc1,GI50,MDA-MB-468 breast,1.31 µM
same,TGI,MDA-MB-468 breast,3.68 µM
C=C1CC[C@@H]2[C@](C)(COC(C)=O)[C@H](OC(C)=O)CC[C@@]2(C)[C@@H]1CC(Nc1ccc(S(=O)(=O)Nc2ccc(Cl)nn2)cc1)C1=CCOC1=O (stereo partly drawn),GI50,MDA-MB-468 breast,1.32 µM
same,TGI,MDA-MB-468 breast,3.37 µM
O=C1c2ccc3c4c(ccc(c24)C(=O)N1CCCNCc1ccccc1Cl)C(=O)N(CCCNCc1ccccc1Cl)C3=O,GI50,MDA-MB-468 breast,0.124 µM
same,TGI,MDA-MB-468 breast,0.352 µM
N#Cc1c(NC(=O)c2ccc(F)c(Cl)c2)sc2c1CCC(=O)C2,GI50,MDA-MB-468 breast,0.387 µM
same,TGI,MDA-MB-468 breast,1.95 µM
COc1ccc(C2C(C#N)=C(N)Oc3c2sc2ccc(C)cc32)cc1 (stereo not drawn),GI50,MDA-MB-468 breast,2.42 µM
same,TGI,MDA-MB-468 breast,9.74 µM
COc1ccc(CC(=O)c2ccc(O)cc2O)cc1,GI50,MDA-MB-468 breast,56.7 µM
same,TGI,MDA-MB-468 breast,> 100 µM
O=C(Nc1ccc(Oc2cccc(F)c2)c(Cl)c1)c1cnccn1,GI50,MDA-MB-468 breast,0.834 µM
same,TGI,MDA-MB-468 breast,4.99 µM
CC(C)(C)c1[nH]nc2c1C(c1cc3ccccc3[nH]c1=O)Nc1cc(C(=O)OCc3ccccc3)ccc1N2 (stereo not drawn),GI50,MDA-MB-468 breast,2.46 µM
same,TGI,MDA-MB-468 breast,6.74 µM
Cc1nn(C)c(COc2ccc(N3CCN(S(=O)(=O)N(C)C)CC3)cc2)c1-c1cccc2c(CCCOc3cccc4ccccc34)c(C(=O)O)n(CCN3CCOCC3)c12,GI50,MDA-MB-468 breast,1.91 µM
same,TGI,MDA-MB-468 breast,5.36 µM
Nc1c(C(=O)c2cccc(-c3cccnc3)c2)cnn1-c1ccc(F)cc1F,GI50,MDA-MB-468 breast,2.97 µM
same,TGI,MDA-MB-468 breast,> 25 µM
